The structures appear in SMILES notation.

The assay has as its system Rattus norvegicus. Kind of assay: Glucocorticoid activity in sc dosed bilaterally adrenalectomized rat assessed as glycogen deposition in liver administered for 5 days relative to cortisol. It counts as functional.
Consider `C[C@H]1C[C@@H]2[C@H]([C@@H](O)C[C@@]3(C)[C@H]2CC[C@]3(O)C(=O)CF)[C@@]2(C)CCC(=O)C=C12`, for which the “log(activity)” value was 0.29.
Consider `C[C@@H]1C[C@H]2[C@@H]3C[C@H](F)C4=CC(=O)CC[C@]4(C)[C@H]3CC[C@]2(C)[C@@]1(O)C(=O)CO`, for which the “log(activity)” value is listed as -0.6.
For `C[C@]12CCC(=O)C=C1C=C[C@@H]1[C@@H]2[C@@H](O)C[C@@]2(C)[C@H]1CC[C@]2(O)C(=O)CO`, the “log(activity)” value is reported as -0.15.
`CC(=O)[C@H]1CC[C@H]2[C@@H]3C[C@H](F)C4=CC(=O)CC[C@]4(C)[C@@]3(F)[C@@H](O)C[C@]12C`: the “log(activity)” value was found to be 0.06.
For `CC(=O)[C@H]1[C@H](O)C[C@H]2[C@@H]3CCC4=CC(=O)CC[C@]4(C)[C@@]3(F)[C@@H](O)C[C@@]21C`, the “log(activity)” value is on record as -1.3.
Take `CC(=O)[C@H]1CC[C@H]2[C@@H]3CCC4=CC(=O)CC[C@]4(C)[C@@]3(F)[C@@H](O)C[C@]12C`: the “log(activity)” value is reported as -1.3.
As for `C[C@]12C=CC(=O)C=C1CC[C@H]1[C@@H]3C[C@@H](O)[C@](O)(C(=O)CO)[C@@]3(C)C[C@H](O)[C@@]12F` [TRIAMCINOLONE], the “log(activity)” value amounted to 1.03.
Take `C[C@]12C=CC(=O)C=C1CC[C@@H]1[C@@H]2C(=O)C[C@@]2(C)[C@H]1CC[C@]2(O)C(=O)CO` [PREDNISONE]: the “log(activity)” value came out at 0.32.
As for `CC(=O)[C@H]1CC[C@H]2[C@@H]3CCC4=CC(=O)[C@H](C)C[C@]4(C)[C@@]3(F)C(=O)C[C@]12C`, the figure is -0.01.
In the case of `C[C@H]1C[C@H]2[C@@H]3CC[C@](O)(C(=O)CO)[C@@]3(C)C[C@H](O)[C@]2(F)[C@@]2(C)C=CC(=O)C=C12` it was 1.15; in that of `C[C@]12C[C@H](O)[C@H]3[C@@H](CCC4=CC(=O)CC[C@@]43C)[C@@H]1CC[C@@H]2C(=O)CO` [CORTICOSTERONE], -0.55; in that of `C[C@]12C=CC(=O)C=C1CC[C@@H]1[C@@H]2[C@@H](O)C[C@@]2(C)[C@H]1CC[C@]2(O)C(=O)CO` [PREDNISOLONE], 0.43.
In the case of `CC(=O)[C@H]1CC[C@H]2[C@@H]3CCC4=CC(=O)[C@H](C)C[C@]4(C)[C@@]3(F)[C@@H](O)C[C@]12C` it was -0.28.
For `CC(=O)[C@H]1CC[C@H]2[C@@H]3C[C@H](C)C4=CC(=O)CC[C@]4(C)[C@H]3C(=O)C[C@]12C`, the “log(activity)” value was found to be 0.12.
In the case of `C[C@]12CC(=O)[C@H]3[C@@H](CCC4=CC(=O)CC[C@@]43C)[C@@H]1CC[C@@H]2C(=O)CO`, the “log(activity)” value is -0.31.
Consider `C[C@]12CCC(=O)C=C1CC[C@@H]1[C@@H]2[C@@H](O)C[C@@]2(C)[C@H]1CC[C@]2(O)C(=O)CO` [HYDROCORTISONE], for which the “log(activity)” value amounted to 0.
`CC(=O)[C@@]1(O)CC[C@H]2[C@@H]3CCC4=CC(=O)[C@H](C)C[C@]4(C)[C@@]3(F)[C@@H](O)C[C@@]21C`: the “log(activity)” value is listed as -0.11.
For the compound `CC(=O)[C@@]1(O)[C@H](O)C[C@H]2[C@@H]3CCC4=CC(=O)C=C[C@]4(C)[C@@]3(F)[C@@H](O)C[C@@]21C`, the “log(activity)” value was 0.93.
Take `C[C@]12CCC(=O)C=C1CC[C@H]1[C@@H]3C[C@@H](O)[C@](O)(C(=O)CO)[C@@]3(C)C[C@H](O)[C@@]12F`: the “log(activity)” value amounted to 0.53.
For the compound `C[C@H]1C[C@@H]2[C@H]([C@@H](O)C[C@@]3(C)[C@H]2CC[C@]3(O)C(=O)CF)[C@@]2(C)C=CC(=O)C=C12`, the “log(activity)” value turned out to be 0.2.
Turning to `CC(=O)[C@H]1CC[C@H]2[C@@H]3C[C@H](F)C4=CC(=O)CC[C@]4(C)[C@H]3C(=O)C[C@]12C`, the “log(activity)” value is -1.15.
In the case of `CC(=O)OCC(=O)[C@@]1(O)CC[C@H]2[C@@H]3C[C@H](C)C4=CC(=O)CC[C@]4(C)[C@H]3C(=O)C[C@@]21C`, the “log(activity)” value is listed as -0.1.
As to `C[C@]12C=CC(=O)C=C1C=C[C@@H]1[C@@H]2[C@@H](O)C[C@@]2(C)[C@H]1CC[C@]2(O)C(=O)CO`, the “log(activity)” value was found to be 0.08.
Turning to `CC(=O)[C@H]1[C@H](C)C[C@H]2[C@@H]3CCC4=CC(=O)CC[C@]4(C)[C@@]3(F)C(=O)C[C@@]21C`, the “log(activity)” value is listed as -0.11.
As to `CC(=O)C1(C(C)=O)CC[C@H]2[C@@H]3CCC4=CC(=O)CC[C@]4(C)[C@@]3(F)[C@@H](O)C[C@@]21C`, the “log(activity)” value was -0.7.
As to `CC(=O)[C@@]1(O)CC[C@H]2[C@@H]3C[C@H](C)C4=CC(=O)CC[C@]4(C)[C@H]3[C@@H](O)C[C@@]21C`, the “log(activity)” value is on record as 0.36.
Consider `C[C@]12CCC(=O)C=C1CC[C@H]1[C@@H]3CC[C@](O)(C(=O)CO)[C@@]3(C)C[C@H](O)[C@@]12F` [FLUDROCORTISONE], for which the “log(activity)” value turned out to be 0.9.
As for `C[C@@H]1C[C@@]2(C)C(=CC1=O)CC[C@@H]1[C@@H]2[C@@H](O)C[C@@]2(C)[C@H]1CC[C@]2(O)C(=O)CO`, the “log(activity)” value is 0.64.
Consider `C[C@]12CCC(=O)C=C1CC[C@@H]1[C@@H]2C(=O)C[C@@]2(C)[C@H]1CC[C@]2(O)C(=O)CO` [CORTISONE], for which the “log(activity)” value was -0.46.
With `C[C@H]1C[C@@H]2[C@H]([C@@H](O)C[C@@]3(C)[C@H]2CC[C@]3(O)C(=O)CO)[C@@]2(C)CCC(=O)C=C12`, the “log(activity)” value is given as 0.2.
For the compound `CC(=O)[C@H]1CC[C@H]2[C@@H]3C[C@H](C)C4=CC(=O)CC[C@]4(C)[C@@]3(F)[C@@H](O)C[C@]12C`, the “log(activity)” value turned out to be 0.34.

These data come from ChEMBL document CHEMBL3244262, “A Fujita--Ban structure--activity analysis of 44 steroids” (1978).
